Where two headings read alike, the source gives them in different places.
Key:
[1] = cited from earlier work; for increase in apixaban exposure: phase I study, regression analysis
[2] = Simulation of apixaban steady-state exposure in VTE treatment population; design: species or system human
[3] = cited from earlier work
[4] = Exploratory exposure-response evaluation for bleeding and efficacy endpoints; format: in vivo, human
[5] = Population pharmacokinetic analysis of apixaban; format: in vivo, human; settings: for CL renal: male, human, plasma, oral
[6] = tested on: cytochrome P450 3A4 (CYP3A4); settings: minor contributions from CYP1A2, 2C8, 2C9, 2C19, 2J2; cited from earlier work
[7] = among 522 subjects from the acute VTE treatment studies

What does the source list for COc1ccc(-n2nc(C(N)=O)c3c2C(=O)N(c2ccc(N4CCCCC4=O)cc2)CC3)cc1 [apixaban, Apixaban]?
half-life [1]: ~12 h; lower CL/F, NVAF subjects compared to phase I subjects [1]: 14%; oral bioavailability [1]: ~50%; renal clearance as share of total systemic clearance [1]: ~27%; volume of distribution from phase I studies [1]: ~21 L; decrease in exposure after coadministration with rifampin ([1]; healthy subjects, strong inducer of CYP3A4 and P-gp): 50%; increase in exposure after coadministration with ketoconazole ([1]; healthy subjects, strong inhibitor of CYP3A4 and P-gp): 2 fold; predicted median daily AUCss in NVAF subjects ([1]; nonvalvular atrial fibrillation subjects, 5 mg b.i.d.): 3,280 ng*hr/mL; exposure higher following coadministration with ketoconazole than apixaban alone ([1]; phase I clinical studies): ~100%; higher AUC, females compared to males ([1]; phase I studies): 15%; higher AUC, older subjects (>=65 years) compared to younger subjects (18-40 years) ([1]; phase I studies): 32%; increase in apixaban exposure ([1]; mild renal impairment): ~16%; increase in apixaban exposure ([1]; moderate renal impairment): ~29%; increase in apixaban exposure ([1]; severe renal impairment): ~44%; predicted median daily AUCss lower than in NVAF subjects ([2]; 5-mg b.i.d., VTE treatment population vs NVAF subjects): about 25%; fluctuation between peak and trough concentrations ([2]; predicted, VTE treatment subjects): ~2 fold; adjudicated major bleeding (primary safety endpoint) vs enoxaparin/warfarin ([3]; AMPLIFY study): statistically superior; number of major bleeding events, apixaban and placebo groups ([3]; AMPLIFY-EXT): low and similar; bleeding events (major or clinically relevant nonmajor) ([4]; among 178 subjects from the AMPLIFY-EXT study): eight; VTE/VTE-related death events [4, 7]: five; bleeding events (major or clinically relevant nonmajor) [4, 7]: 25; reduction in Vc/F vs 85 kg reference subject ([5]; 50-kg subject): 24%; increase in Vc/F vs 85 kg reference subject ([5]; 120-kg subject): 20%; impact on apixaban exposure ([5]; age, sex, Asian race (also strong or moderate CYP3A4/P-gp inhibitors)): less than 25%; increase in AUC expected in severe renal impairment ([5]; expected from 27% renal contribution, renal clearance close to zero): ~40%; Asian subjects effect on CL/F (covariate parameter, fractional change) ([5]; final model): −0.168; Female effect on CLNR/F (covariate parameter, fractional change) ([5]; final model): −0.223; IIV (interindividual variability, CV%) of CL/F ([5]; final model): 33.1%; IIV (interindividual variability, CV%) of ka ([5]; final model): 50.2%; Q/F (apparent intercompartmental clearance) ([5]; final model): 1.62 L/h; Vp/F (apparent volume of peripheral compartment) ([5]; final model): 19.8 L; Vc/F (apparent volume of central compartment) ([5]; final model, reference VTE treatment subject): 32.1 L; ka, an evening dose ([5]; final population PK model, evening dose): 0.239 h⁻¹; ka ([5]; final population PK model, morning or afternoon dose): 0.440 h⁻¹; CL renal ([5]; CLNR/F (apparent nonrenal clearance), final model, reference VTE treatment subject): 42 mL/min; CL renal ([5]; CLR/F (apparent renal clearance), final model, reference VTE treatment subject (60 years, non-Asian male, 85 kg, cCrCL 100 mL/min)): 30.5 mL/min; lower daily AUC vs 60-year-old reference subject ([5]; predicted, 40-year-old male, no change in apparent renal clearance): ~6%; higher daily AUC vs 60-year-old reference subject ([5]; predicted, 80-year-old male, no change in apparent renal clearance): 5%; higher AUC compared to non-Asian subjects ([5]; predicted, Asian subjects): 20%; higher AUC than male subjects ([5]; predicted, female subjects): ~15%; higher AUC than reference subject with normal renal function ([5]; predicted, mild renal impairment (cCrCL of 65 mL/min)): ~17%; higher AUC (exposure) than reference subject ([5]; predicted, severe renal impairment (cCrCL of 15 mL/min)): 56%; decrease in CL/F ([5]; severe renal impairment): 36%; metabolism by CYP3A4 [6]: predominantly metabolized

From article PMC5445237 (CPT: Pharmacometrics & Systems Pharmacology, 2017)
